The source of these data is patent US11866443B2, “Method for separating optically active hydroxy cineole derivatives” (BASF Agro B.V., priority 2017, dated 2024).

The data set can be described thus: Solubility of racemic and enantiopure hydroxy cineol in different solvents at room temperature. The note with it: for Solubility: room temperature.

In brackets after ≈: the same amount, converted by molar mass.

Description: The solubility of racemic hydroxy cineol and enantiopure hydroxy cineol was checked at room temperature in solvents namely, petroleum ether, n-pentane, n-hexane, n-heptane, iso-octane, cyclohexane and toluene.
The solubility at room temperature was determined by adding under stirring small portions of the substance to 5 mL of solvent until it reached saturation and formation of a no more soluble sediment was observed.

The Solubility is the dissolved amount per volume that the medium holds. For the compound `CC(C)C12CCC(C)(O1)C(O)C2` (racemic) [Racemate, hydroxy cineol], the Solubility runs as follows: (cyclohexane) 380 mg/mL (≈ 2230 mM); (iso-octane) 75 mg/mL (≈ 441 mM); (n-heptane) 80 mg/mL (≈ 470 mM); (n-hexane) 100 mg/mL (≈ 587 mM); (n-pentane) 150 mg/mL (≈ 881 mM); (petroleum ether) 120 mg/mL (≈ 705 mM). The Solubility (toluene) came to 800 mg/mL (≈ 4700 mM). Moreover, the “solubility of racemate relative to the optical pure hydroxy-cineol” value (n-heptane) is on record as 8 fold. Moreover, the “solubility of racemic compound compared with optical pure material” value (non-polar solvents) is on record as “much better soluble”.
